In BindingDB's records for doi:10.1016/0028-3908(95)00017-z (Merz, 1995):
Several values for one entry are separate records, joined by “and”; a condition that tells them apart may be missing. Equal entries are not always repeated.

Target: Glutamate receptor ionotropic, NMDA 1 (Rattus norvegicus, UniProt P35439)

SMILES	Ki
CN[C@@]1(c2ccccc2Cl)CCCCC1=O [2-(2-Chloro-phenyl)-2-methylamino-cyclohexanone(Ketamine)]	1190 nM and 2510 nM
N[C@@H](Cc1ccc(Cl)cc1)C(=O)O [CAS_7424-00-2]	42.2 nM and 180 nM
